Positions count from the first letter of the chain named. Blank lines part the entries; values can stand above or below the molecule they belong to. Calls of active or inactive are those of the source. The rule behind the calls is not given here.
Tests used:
[1] = molecular target: T1, Lysosomal acid glucosylceramidase (Homo sapiens) (UniProt P04062); assay: Inhibition of human beta-glucocerebrosidase at 20 uM by fluorescence spectrophotometry
T1 sequence (whole entry): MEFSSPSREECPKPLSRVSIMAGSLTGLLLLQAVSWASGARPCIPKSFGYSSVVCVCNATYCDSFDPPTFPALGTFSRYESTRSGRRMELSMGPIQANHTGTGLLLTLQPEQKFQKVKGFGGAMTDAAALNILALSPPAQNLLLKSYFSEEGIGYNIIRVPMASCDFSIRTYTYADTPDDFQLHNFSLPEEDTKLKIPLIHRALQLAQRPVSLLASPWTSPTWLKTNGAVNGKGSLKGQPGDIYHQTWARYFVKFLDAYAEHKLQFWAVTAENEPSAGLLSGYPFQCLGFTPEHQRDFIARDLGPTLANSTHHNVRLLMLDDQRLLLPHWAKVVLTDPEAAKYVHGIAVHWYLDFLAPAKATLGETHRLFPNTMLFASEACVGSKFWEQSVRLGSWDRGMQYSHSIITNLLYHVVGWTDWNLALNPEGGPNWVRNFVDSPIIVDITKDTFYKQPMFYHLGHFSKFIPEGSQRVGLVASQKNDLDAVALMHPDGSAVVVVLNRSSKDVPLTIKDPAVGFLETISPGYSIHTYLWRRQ

[2] = molecular target: T2, Lysosomal acid glucosylceramidase (Homo sapiens, UniProt P04062); assay: Competitive inhibition of human beta-glucocerebrosidase by Lineweaver-Burk double reciprocal plot method
T2 sequence (P04062 whole entry): T1 sequence (whole entry)

[3] = molecular target: Lysosomal alpha-glucosidase (Homo sapiens) (UniProt P10253); assay: Induction of alpha-glucosidase in human GM00372 cells using 4-methylumbelliferyl alpha-D-glucoside as substrate at 25 uM after 4 days by fluorescence spectrophotometry relative to untreated control; assay type: cell-based
[4] = test system: T3, Lysosomal acid glucosylceramidase (Homo sapiens), P04062 [N409S]; assay: Induction of beta-glucocerebrosidase N370S mutant in human GM00372 cells using 4-methylumbelliferyl-beta-D-glucopyranoside as substrate at 6.2 uM by fluorescence spectrophotometry relative to untreated control; assay type: cell-based
T3 sequence (whole entry): T1 sequence (whole entry) with N409S

[5] = molecular target: Lysosomal alpha-glucosidase (Homo sapiens) (UniProt P10253); assay: Induction of alpha-glucosidase in human GM00372 cells using 4-methylumbelliferyl alpha-D-glucoside as substrate at 20 to 100 uM after 4 days by fluorescence spectrophotometry relative to untreated control; assay type: cell-based
[6] = test system: T3, Lysosomal acid glucosylceramidase (Homo sapiens), P04062 [N409S]; assay: Induction of beta-glucocerebrosidase N370S mutant in human GM00372 cells using 4-methylumbelliferyl-beta-D-glucopyranoside as substrate at 625 nM by fluorescence spectrophotometry relative to untreated control; assay type: cell-based
[7] = molecular target: Lysosomal alpha-glucosidase (Homo sapiens) (UniProt P10253); assay: Induction of alpha-glucosidase in human GM00372 cells using 4-methylumbelliferyl alpha-D-glucoside as substrate at 1.5 uM after 4 days by fluorescence spectrophotometry relative to untreated control; assay type: cell-based
[8] = molecular target: Lysosomal alpha-glucosidase (Homo sapiens) (UniProt P10253); assay: Induction of alpha-glucosidase in human GM00372 cells using 4-methylumbelliferyl alpha-D-glucoside as substrate at <6.25 uM after 4 days by fluorescence spectrophotometry relative to untreated control; assay type: cell-based
[9] = test system: T3, Lysosomal acid glucosylceramidase (Homo sapiens), P04062 [N409S]; assay: Induction of beta-glucocerebrosidase N370S mutant in human GM00372 cells using 4-methylumbelliferyl-beta-D-glucopyranoside as substrate at 25 uM by fluorescence spectrophotometry relative to untreated control; assay type: cell-based
[10] = molecular target: T2, Lysosomal acid glucosylceramidase; assay: Non-competitive inhibition of human beta-glucocerebrosidase by Lineweaver-Burk double reciprocal plot method
[11] = test system: T3, Lysosomal acid glucosylceramidase (Homo sapiens), P04062 [N409S]; assay: Induction of beta-glucocerebrosidase N370S mutant in human GM00372 cells using 4-methylumbelliferyl-beta-D-glucopyranoside as substrate at 50 uM by fluorescence spectrophotometry relative to untreated control; assay type: cell-based
[12] = test system: T3, Lysosomal acid glucosylceramidase (Homo sapiens), P04062 [N409S]; assay: Induction of beta-glucocerebrosidase N370S mutant in human GM00372 cells using 4-methylumbelliferyl-beta-D-glucopyranoside as substrate at 3.1 uM by fluorescence spectrophotometry relative to untreated control; assay type: cell-based
[13] = molecular target: Lysosomal alpha-glucosidase (Homo sapiens) (UniProt P10253); assay: Induction of alpha-glucosidase in human GM00372 cells using 4-methylumbelliferyl alpha-D-glucoside as substrate at 6.2 uM after 4 days by fluorescence spectrophotometry relative to untreated control; assay type: cell-based
[14] = test system: T3, Lysosomal acid glucosylceramidase (Homo sapiens), P04062 [N409S]; assay: Induction of beta-glucocerebrosidase N370S mutant trafficking from endoplasmic reticulum to lysosome in human GM00372 cells at 5 uM by immunocytochemistry; assay type: cell-based
[15] = test system: T3, Lysosomal acid glucosylceramidase (Homo sapiens), P04062 [N409S]; assay: Induction of beta-glucocerebrosidase N370S mutant in human GM00372 cells using 4-methylumbelliferyl-beta-D-glucopyranoside as substrate at 1.5 uM by fluorescence spectrophotometry relative to untreated control; assay type: cell-based
[16] = test system: T3, Lysosomal acid glucosylceramidase (Homo sapiens), P04062 [N409S]; assay: Induction of beta-glucocerebrosidase N370S mutant in human GM00372 cells using 4-methylumbelliferyl-beta-D-glucopyranoside as substrate at 12.5 uM by fluorescence spectrophotometry relative to untreated control; assay type: cell-based

Structure (SMILES): O=C(CC1c2ccccc2-c2ccccc21)NCCCCN1[C@H](CO)[C@@H](O)[C@H](O)[C@H]1CO
fold change (FC) [4]: 1.7
Activity [5]: < 10%

Structure (SMILES): O=C(CC(c1ccccc1)(c1ccccc1)c1ccccc1)NCCCCN1C[C@H](O)[C@@H](O)[C@H](O)[C@H]1CO
inhibition [1]: Active
fold change (FC) [6]: 1.8
fold change (FC) [7]: 0.4
Ki [2]: 400 nM
Activity [8]: 60%

Structure (SMILES): O=C(CC1c2ccccc2-c2ccccc21)NCCCCN1C[C@@H](O)[C@H](O)[C@H]1CO
fold change (FC) [11]: 1.8
Activity [5]: < 10%

Structure (SMILES): O=C(NCCCCN1C[C@H](O)[C@@H](O)[C@H](O)[C@H]1CO)C1CC1
inhibition [1]: < 60%

Structure (SMILES): CCCCCCCCCN1C[C@H](O)[C@@H](O)[C@H](O)[C@H]1CO
Activity [8]: 60%
fold change (FC) [13]: 0.4

Structure (SMILES): O=C(Cc1cc(C(F)(F)F)cc(C(F)(F)F)c1)NCCCCN1C[C@H](O)[C@@H](O)[C@H](O)[C@H]1CO
fold change (FC) [16]: 1.75
inhibition [1]: Active
fold change (FC) [7]: 0.4
Ki [2]: 71 nM
Activity [8]: 60%

Structure (SMILES): O=C(CC1CCCC1)NCCCCN1C[C@H](O)[C@@H](O)[C@H](O)[C@H]1CO
inhibition [1]: < 60%

Structure (SMILES): CC[C@@H]1[C@@H](O)[C@H](O)[C@@H](CO)N1CCCCNC(=O)CC1c2ccccc2-c2ccccc21
fold change (FC) [16]: 1.6

Structure (SMILES): O=C(CC1c2ccccc2-c2ccccc21)NCCCCN1C[C@H](O)[C@@H](O)[C@H](O)[C@H]1CO
fold change (FC) [16]: 1.9
inhibition [1]: Active
fold change (FC) [7]: 0.3
Ki [2]: 400 nM
Activity [8]: 60%

Further lines, results first:

inhibition [1]: Active
Ki [2]: 3200 nM
Structure (SMILES): O=C(COc1ccc(Cl)c(Cl)c1)NCCCCN1C[C@H](O)[C@@H](O)[C@H](O)[C@H]1CO

fold change (FC) [3]: 1.2
fold change (FC) [4]: 2.5
Structure (SMILES): O=C(CC(c1ccccc1)(c1ccccc1)c1ccccc1)NCCCCN1C[C@@H](O)[C@H](O)[C@H]1CO

fold change (FC) [9]: 1.5
inhibition [1]: Active
Ki [10]: 1100 nM
Structure (SMILES): COc1ccc2c(c1)C(CC(=O)NCCCCN1C[C@H](O)[C@@H](O)[C@H](O)[C@H]1CO)CC2 (some centres not stated)

inhibition [1]: < 60%
Structure (SMILES): O=C(CC1CCCCC1)NCCCCN1C[C@H](O)[C@@H](O)[C@H](O)[C@H]1CO

fold change (FC) [12]: 1.4
Structure (SMILES): CC[C@@H]1[C@@H](O)[C@H](O)[C@@H](CO)N1CCCCNC(=O)CC(c1ccccc1)(c1ccccc1)c1ccccc1

inhibition [1]: < 60%
Structure (SMILES): O=C(CCC1CCCC1)NCCCCN1C[C@H](O)[C@@H](O)[C@H](O)[C@H]1CO

inhibition [1]: < 60%
Structure (SMILES): O=C(NCCCCN1C[C@H](O)[C@@H](O)[C@H](O)[C@H]1CO)C1CCC1

Activity [14]: Active
Ki [2]: 4100 nM
Activity [5]: < 10%
fold change (FC) [15]: 2.2
Structure (SMILES): O=C(CC(c1ccccc1)(c1ccccc1)c1ccccc1)NCCCCN1[C@H](CO)[C@@H](O)[C@H](O)[C@H]1CO

inhibition [1]: Active
Ki [2]: 1000 nM
Structure (SMILES): O=C(NCCCCN1C[C@H](O)[C@@H](O)[C@H](O)[C@H]1CO)C1CCc2ccccc2C1 (some centres not stated)

inhibition [1]: < 60%
Structure (SMILES): O=C(NCCCCN1C[C@H](O)[C@@H](O)[C@H](O)[C@H]1CO)C1CCCC1

— ChEMBL document CHEMBL2413029, “Rapid modifications of N-substitution in iminosugars: development of new β-glucocerebrosidase inhibitors and pharmacological chaperones for Gaucher disease” (Bioorg Med Chem, 2013)
